Results published in patent publication US9296719B2, “Compositions and methods for the treatment of norovirus infection” (Indiana University Research and Technology Corporation, priority 2011, dated 2016).
Entries after “also recorded” stand apart in the source; their conditions may differ. Like-named read-outs stand apart in the source and are kept apart here.

Experiments:
GII.4 NV polymerase = assay: 5BR reporter assay, GII.4 polymerase; type: cell-based, Human Norovirus; settings: for effect on GII.4 polymerase 5BR assay readout (screen): re-screened at 10 and 20 μM final concentrations, FIG. 6A
Experimental: (§1) The 5BR reporter assay to measure the activity of the Norovirus polymerase and other viral polymerases was performed as per Ranjith-Kumar et al. (32). The assay could also be performed with other viral proteins, such as VPg or VP1. Briefly, plasmids expressing RdRp and VPg were co-transfected along with plasmids to express RIG-I or MDA5, as well as the firefly and Renilla luciferase reporters. HEK293T or Huh 7 cells were transfected using Lipofectamine 2000 (Invitrogen, Carlsbad, Calif.) according to the manufacturer's instructions. 24 h prior to transfection, 0.75×10^5 cells were seeded into each well of Costar 96-well plates in DMEM containing 10% FBS. Cells were then typically transfected at 75% confluency with plasmid amounts detailed in the figure legends and complexed with Lipofectamine 2000 as per the manufacturer's instructions (Invitrogen, USA). Vector plasmid (pUNO-MCS) was used to maintain a constant total plasmid DNA per well. To examine the VPg effect on NV RdRp-RIG-I signaling, 293T cells were co-transfected with plasmids expressing RdRp and VPg. At 36 h after transfection, luciferase activity was measured using Dual-Glo Luciferase Assay System (Promega, Madison, Wis.) in Synergy 2 microplate reader (BioTek, Winooski, Vt.).
Where inhibitors were added to the cells for the 5BR assay, they were added 2 h after transfection of the plasmids.
We have previously developed an easily manipulative, cell-based assay to assess RNA synthesis by viral polymerases. The 5BR assay was validated for the 1b HCV polymerase (NS5B) and has since been established for several other viruses that cannot infect cultured human cells (32 and data not shown). The assay works by having the viral polymerase synthesize RNAs, which then act as agonists to activate RIG-I and/or MDA5. Receptor activation induces Firefly luciferase reporter expression which is driven by the interferon beta promoter (FIG. 2A). A Renilla luciferase is expressed in the same cells to report on the transfection efficiency and possible cytopathic effects. The polymerase from the GII.4 strain of Norwalk virus is the prototype in our assay.
The 5BR assay format has been validated for studies of nonnucleoside and nucleoside inhibitors (NNI, NI, respectively) of the 1b and 2a HCV polymerase and how resistant mutations can prevent inhibition (32). Using this format, we performed a proof-of-concept screen for inhibitor of the GII.4 polymerase. […] The hits were re-screened at 10 and 20 μM final concentrations (FIG. 6A). […] This is consistent with the results of Chang et al., (18) although Ribavirin is known to have pleiotropic effects on cellular as well as viral processes (66).

MNV polymerase = molecular target: T1, MNV polymerase (Norovirus, UniProt Q80J95); assay: 5BR reporter assay, MNV polymerase; type: cell-based, Mouse norovirus; settings: 5BR assay; read-out: EC50, inhibition of MNV polymerase
T1 construct: NS7, the RNA-dependent RNA polymerase (RdRp), and NS5 (VPg), the protein primer; expressed in transfected cells; host or cells: HEK293T or Huh 7
Experimental: as §1
(§2) Where inhibitors were added to the cells for the 5BR assay, they were added 2 h after transfection of the plasmids. […]

[1] = molecular target: GII.4 polymerase-VPg complex; assay: 5BR reporter assay, GII.4 polymerase-VPg complex; type: cell-based, Human Norovirus
Experimental: as §1, §2

[2] = system: recombinant GII.4 polymerase (NV RdRp); assay: Differential scanning fluorimetry (DSF) binding to recombinant NV polymerase; design: species or system Human Norovirus
Text: Differential Scanning Fluorimetry (DSF)
This method is used to examine the binding of proteins to drugs (31). The principle for the assay is that the thermal denaturation profile of the protein could be changed when it is complexed to the drug. To perform the assay, thermal melting curves of NV RdRp in the presence of inhibitors were obtained in 96-well plates using Stratagene Mx3005P Q-PCR system (Agilent Tachnologies, USA) and the fluorescent dye SYPRO Orange (Invitrogen, Carlsbad, Calif.). To evaluate the binding affinities of inhibitors, different concentrations of various drugs like VX-222, Filibuvir and Ribavirin were mixed with 20 μM purified NV RdRp and 5× concentration of SYPRO Orange. A heating rate of 1.0° C. per min was used from 25 to 90° C., and fluorescence intensity was read at excitation and emission wavelengths of 470 and 550 nm, respectively. Each sample was tested in triplicate, and the results were duplicated in at least two independent assays.

RIG-I signaling = RIG-I signaling in the absence of the NV polymerase; type: cell-based, human; settings: absence of the NV polymerase (data not shown)
Experimental: as §1, with “Vt.). […]” for “Vt.).”

Row | Compound | EC50 (GII.4 NV polymerase; 5BR assay, polymerase alone (no VPg), read-out: EC50, inhibition of GII4 polymerase) | EC50 (GII.4 NV polymerase; HEK293T cells, 5BR assay, read-out: effective concentration for inhibition) | inhibition of GII.4 NV polymerase activity in Huh7 cells (GII.4 NV polymerase; Huh7 cells, 5BR assay, GII.4 VP1 co-expressed, FIG. 6C) | EC50 (MNV polymerase) | EC50 ([1]; 5BR assay, VPg co-expressed, read-out: EC50 with GII.4 polymerase-VPg complex) | EC50 ([1]; library screen, read-out: EC50, inhibitor of human norovirus polymerase-VPg complex) | shift of thermal denaturation profile (apparent Tm) of GII.4 polymerase ([2]; absence of VPg, apparent Tm of polymerase alone ~43.5° C.) | effect on RIG-I signaling (RIG-I signaling) | effect on GII.4 polymerase 5BR assay readout (screen) (GII.4 NV polymerase) | effect in the DSF assay ([2]; recombinant GII.4 polymerase) | concentration at which the thermal denaturation profile starts to shift ([2]; nucleoside form)
1 | VX-222 | ~15000 nM | ~100 nM | concentration-dependent inhibition | ~15000 nM | 900 nM | < 1000 nM | more than 4.5 °C | did not affect |  |  | 
2 | CCc1cc(CC[C@]2(C3CCCC3)CC(O)=C(Cc3nc4nc(C)cc(C)n4n3)C(=O)O2)cc(CC)n1 [Filibuvir] |  |  |  |  |  |  |  |  | no effect; also recorded: did not affect | no effect | 
3 | NC(=O)c1ncn([C@@H]2O[C@H](CO)[C@@H](O)[C@H]2O)n1 [Ribavirin] |  |  |  |  |  |  |  |  | modest inhibitory effect |  | 1 µM
